Assay results: patent US20170165317A1, “METHOD FOR MITIGATING OR ALLEVIATING SYNAPTIC AND COGNITIVE DEFICITS” (Trustees of Dartmouth College, priority 2013, published 2017)
Square brackets hold non-standard residues; d marks the D form. Peptide text beside a SMILES is read from it. * marks the point of attachment. ξ: configuration not given here. Myristoyl = CCCCCCCCCCCCCC(=O)*; dThr(3ξ) = CC(O)[C@@H](N)C(=O)O; Ile(3ξ) = CCC(C)[C@H](N)C(=O)O

How the values were obtained:
acute mice slices = assay: LTD of fEPSPs in acute hippocampal slices; format: cell-based; details: peptide 10 μM, 1-2.5 hours incubation
Procedure: (§1) A concentric bipolar platinum-iridium stimulation electrode and a low-resistance glass recording microelectrode filled with aCSF (3-4 MΩ resistance) were placed in CA1 stratum radiatum to record the extracellular field excitatory postsynaptic potentials (fEPSPs). For each slice, an input-output curve was recorded to compare basal synaptic transmission at different conditions. This curve was also used to set the baseline fEPSP at ≈30% (for LTP experiments) or ≈50% (for LTD experiments) of maximal slope. Baseline stimulation was delivered every 15 seconds (0.01 ms duration pulses) for at least 20 minutes before beginning the experiment to ensure stability of the response. LTP was induced by using θ-burst stimulation (4 pulses at 100 Hz, with the bursts repeated at 5 Hz and each tetanus including three 10-burst trains separated by 15 seconds). LTD was induced using 900 pulses at 1 Hz. Responses were recorded for 1 hour after induction of LTP or LTD.
It was posited that the PTEN-PDZ peptide would saturate PDZ interaction sites of PTEN, consequently preventing anchoring of PTEN to PDZ proteins, and in this manner it would prevent LTD.

[1] = system: hippocampal CA3 and CA1 cells from acute slices; assay: fEPSP input-output curve (basal synaptic transmission) in acute hippocampal slices exposed to protofibrillar Aβ42; format: cell-based, mice; details: for basal synaptic transmission in the absence of Aβ treatment: peptide alone; for Aβ-induced synaptic depression: slices preincubated with peptide 1 hour before synthetic protofibrillar Aβ
Procedure: Mice were anesthetized with sodium pentothal (20 mg/kg ip) and decapitated. The brain was rapidly removed to ice-cold, oxygenated, dissection solution. Coronal slices (300 μm) were made with a vibratome (LEICA VT1200S) and slices were moved to a recovery chamber containing aCSF at room temperature for at least 1.5 hour before recording.
as §1
Dissection solution (employed for slicing) composition: 10 mM D-glucose, 4 mM KCl, 26 mM NaHCO3, 233.7 mM sucrose, 5 mM MgCl2, 1:1000 Phenol Red. Artificial CSF (employed for recovery and recording) composition: 119 mM NaCl, 2.5 mM KCl, 1 mM NaH2PO4, 11 mM glucose, 1.2 mM MgCl2, 2.5 mM CaCl2. Osmolarity was adjusted to […].
For the first approach, protofibrillar Aβ was prepared by promoting aggregation under high-salt conditions (258 μM Aβ42, room temperature incubation (Jan, et al. (2010) Nat. Protoc. 5:1186-1209). The kinetics of Aβ42 aggregation were followed by thioflavin T fluorescence and SDS-PAGE western blot analysis with the N-terminal anti-Aβ antibody 6E10. Also, the heterogeneous nature of these Aβ42 assemblies was evidenced by electron microscopy. Synaptic function was assessed by electrophysiological recordings of field excitatory postsynaptic potential (fEPSPs) between hippocampal CA3 and CA1 cells from acute slices prepared from 5-month-old mice. The results indicated a ≈60% decrease in the magnitude of synaptic transmission (input-output curve) when slices were incubated for 2 hours in aCSF containing pathogenic protofibrillar Aβ42 species (1 μM). This decrease in the basal synaptic transmission was prevented when Aβ was added to slices that were preincubated with the PTEN inhibitor (50 nM VO-OHpic) for 1 hour (VO-OHpic and Aβ were also present in the perfusion solution during electrophysiological recordings). VO-OHpic alone had no effect on basal synaptic transmission. […] The potency and specificity of this inhibitor have been documented previously (Rosivatz, et al. (2006) ACS Chem. Biol. 1:780-790).
The effect of these peptides on Aβ-treated neurons was subsequently tested.

APP/PS1 mice = assay: Novel object location task after i.c.v. infusion by osmotic minipump; format: in vivo, mouse; details: APP/PS1 mice, peptide 2 mM in pump, i.c.v. 3-4 weeks; p=0.027 vs vehicle-infused APP/PS1; recognition index similar to wild-type
Procedure: APP/PS1 and wild-type mice were anesthetized with isofluorane, and i.c.v. delivery cannulas (brain alzet kit III) were implanted with a stereotaxic frame (KOPF Instruments) at the following coordinates according to the bregma: AP, −0.5 mm; ML, 1 mm; and DV, −2.2 mm. Osmotic minipumps (Alzet) were filled with artificial cerebrospinal fluid (aCSF) with or without PTEN inhibitor VO-OHpic (2.5 μM) and equilibrated in 0.9% NaCl at 37° C. for 48 hours. They were attached to the i.c.v. cannula tubing and subcutaneously implanted at the back. After 21 days, behavioral testing was started as described herein. One month after implantation, mice were sacrificed and the brains were sliced stained with Nissl to verify the location of the cannula. Animal manipulation and data analysis was carried out blind with respect to genotype and treatment.
Novel-Object Location. This assay was chosen because it is not intrinsically stressful. This factor, in mice, crucially affects cognitive performance in other spatial learning paradigms (e.g., Morris water maze). The memory tests were composed of three phases—“habituation”, “sample” and “choice” trials. Mice were first habituated individually to an empty open-field box (35×35×15 high cm) for 30 minutes. A sample trial (object exposure) consisted of placing a mouse into the test box which contained two identical objects. […] A recognition index was calculated by dividing the total time spent exploring the displaced object by the total time spent exploring both objects during the test session. […]
It was posited that if early Aβ-induced cognitive impairment results from a general synaptic bias toward LTD events (Selkoe (2002) Science 298:789-791), dampening this form of synaptic plasticity might prevent cognitive decay. Therefore, it was determined whether in vivo inhibition of PTEN, a lipid phosphatase that is involved in LTD (Jurado, et al. (2010) EMBO J. 29:2827-2840), would rescue cognitive deficits in APP/PS1 mice. […]

[2] = system: APPswe/lnd-expressing neurons; assay: Paired whole-cell recording of AMPAR-mediated EPSCs in APPswe/lnd-expressing CA1 neurons of organotypic hippocampal slices; format: cell-based, rat; details: 15 nM bPV(HOpic) or 50 nM VO-OHpic during expression
Procedure: The effect of recombinant protein expression on synaptic transmission was evaluated by simultaneous double whole-cell recordings from pairs of nearby infected and uninfected CA1 neurons, under voltage clamp, while stimulating presynaptic Schaffer collateral fibers (under this configuration, recombinant proteins are expressed exclusively in the postsynaptic neuron).
The different versions of APP (APPwt, APPswe/lnd APPMV) and EGFP were co-expressed using an internal ribosomal entry site (IRES) construct. The EGFP-tagged versions of PTEN have been described (Jurado, et al. (2010) EMBO J. 29:2827-2840). All constructs were prepared in pSinRep5 for expression using Sindbis virus. Recombinant proteins were expressed in hippocampal CA1 pyramidal neurons from organotypic slice cultures. Organotypic hippocampal slices were prepared from postnatal day 5-7 rats and cultured during 6-8 days.
The external solution (aCSF) contained 119 mM NaCl, 2.5 mM KCl, 1 mM NaH2PO4, 11 mM glucose, 26 mM NaHCO3, 4 mM MgCl2, 4 mM CaCl2, 100 μM picrotoxin and 2 μM 2-chloroadenosine, pH 7.4, and was gassed with 95% O2 and 5% CO2. […] Bipolar stimulating electrodes were placed over Schaffer collateral fibers between 250 and 300 μm from the CA1 recorded cells, and synaptic responses were evoked with single voltage pulses (200 μs, up to 30 V). […]

Aβ42 = target: T1, Aβ42 (Homo sapiens, UniProt P05067); assay: Thioflavin-T fluorescence assay of Aβ42 aggregation; format: biochemical; details: 50 nM VO-OHpic or 15 nM bPV(HOpic), 37° C.
T1 construct: Lyophilized Aβ42 peptide was purchased from Keck Facility at Yale University; purchased Keck Facility at Yale University; host or cells: synthetic peptide
Procedure: Freshly prepared Aβ42 was prepared as described for protofibrillar Aβ42. The Thioflavin-T (ThT) assay was carried out at 37° C., within a dark chamber in a 96-well plate. Each well contained 100 ng/μL of Aβ42, 20 μM ThT and 50 nM VO-OHpic or 15 nM bPV(HOpic). Fluorescence (λex=450 nm; λem=485 nm) was followed over time in a FLUOSTAR OPTIMA (BMG LabTech) fluorescence spectrophotometer. Samples were run in triplicates. […] Thus, the observed rescue of basal synaptic transmission, LTP and cognition, with VO-OHpic was not likely due to an altered aggregation state of Aβ upon PTEN inhibition.

T1 sequence (P05067 672-713): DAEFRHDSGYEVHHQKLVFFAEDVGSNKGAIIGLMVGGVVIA

SMILES | LTD (fEPSP slope 50-60 minutes after induction) (acute mice slices) | basal synaptic transmission in the absence of Aβ treatment [1] | Aβ-induced synaptic depression [1] | spatial learning task (novel object location, recognition index) (APP/PS1 mice) | Aβ-induced synaptic depression ([1]; listed as N-myristoyl-QHSQITKV) | AMPAR-mediated EPSCs in APPswe/lnd-expressing neurons relative to uninfected cells [2] | Aβ42 aggregation (ThT fluorescence) (Aβ42)
CCCCCCCCCCCCCC(=O)N[C@@H](CO)C(=O)N[C@@H](C(=O)N[C@@H](Cc1c[nH]cn1)C(=O)N[C@@H](C(=O)N[C@H](C(=O)N[C@H](CCC(N)=O)C(=O)N[C@@H](CCCCN)C(=O)N[C@H](CCC(N)=O)C(=O)O)C(C)CC)C(C)O)C(C)C (stereo partly shown) [scrambled peptide, N-myristoyl-SVHTIQKQ] (Myristoyl-S[dV]H[dThr(3ξ)][Ile(3ξ)][dQ]K[dQ]-OH) | did not have any effect | neither peptide altered basal synaptic transmission | did not |  |  |  | 
CCCCCCCCCCCCCC(=O)N[C@@H](CCC(N)=O)C(=O)N[C@H](Cc1c[nH]cn1)C(=O)N[C@@H](CO)C(=O)N[C@H](CCC(N)=O)C(=O)N[C@H](C(=O)N[C@@H](C(=O)N[C@@H](CCCCN)C(=O)N[C@@H](C(=O)O)C(C)C)C(C)O)C(C)CC (stereo partly shown) [PTEN-PDZ peptide, N-myristoyl-QHSQITKV] (Myristoyl-Q[dH]S[dQ][Ile(3ξ)][dThr(3ξ)]K[dV]-OH) | completely blocked LTD | neither peptide altered basal synaptic transmission | prevented synaptic depression | significant improvement | blocks Aβ-induced synaptic depression |  | 
O=C1C=C/C(=C(/[O-])O)N=C1.[K+].[O-][O-].[O-][O-].[O]=[V] [bPV(HOpic)] |  |  |  |  |  | no longer depressed | does not alter Aβ42 aggregation
